Experiments:
SMARCA2 = target: T1, SMARCA2 (Homo sapiens, UniProt P51531); experiment: SMARCA2 degradation analysis by imaging in RKO cells (DC50 A2); format: cell-based; details: tables 69, 70, 73, 76-78
T1 construct: endogenous in cells; host or cells: RKO cells (CRL-2577, ATCC)
Protocol: (§1) Determination of SMARCA2 and SMARCA4 Degradation (DC50 A2 and A4 [nM])
(§2) Protein Degradation Assays for SMARCA2 and SMARCA4
(§3) For degradation analysis by imaging, 1250 RKO cells (CRL-2577, ATCC) per well were seeded into 60 μL DMEM (Sigma Aldrich) supplemented with 10% FBS (Hyclone) in 384-well flat bottom plates (CellCarrier Ultra, Perkin Elmer) and incubated at 37° C. and 5% CO2 in a humidified atmosphere overnight. Compounds were added the next day using an Access Labcyte Workstation with a Labcyte Echo 550 or 555 acoustic dispenser and incubated with the cells for 4 or 24 h. Cells were fixed by adding 25 μL fixation buffer (7.4% formaldehyde (Sigma Aldrich F8775), 0.2% Triton TX100 (Sigma Aldrich F93443) in PBS) for 15 minutes at room temperature. After aspirating the fixing solution, the cells were washed once with 25 μL PBS and 25 μL of Blocking Buffer (10% Goat Serum in PBS) were added to each well and incubated for 30 minutes. Cells were washed with PBS and incubated with 20 μL mouse anti-Smarca4 (BRG1) antibody (Cell Signaling #52251) or rabbit anti-Smarca2 (BRM) antibody (Sigma Aldrich HPA029981) in blocking solution (PBS with 10% FCS) for ca. 2-4 h at RT. For detection of the nuclei, 25 μL of 5 μg/mL Hoechst 33342 (stock 10 mg/mL in H2O; Invitrogen H1399) were added together with Alexa Fluor 647 goat anti-mouse IgG (Invitrogen A-21235) or Alexa Fluor 488 goat anti-rabbit IgG (Invitrogen A-11034) in blocking solution and incubated for 60 min at RT. The cell layer was washed with 25 μL PBS, the wells were filled with 25 μL PBS and the plates sealed with an adhesive sheet. The mean intensity at 488 or 647 nm in the nucleus was measured using an Opera Phenix Plus High-Content Screening System (Perkin Elmer), values were normalized to the background and DMSO control and DC50 values were calculated and analyzed using a four-parametric logistic model.

SMARCA4 = target: T2, SMARCA4 (Homo sapiens, UniProt P51532); experiment: SMARCA4 degradation analysis by imaging in RKO cells (DC50 A4); format: cell-based; details: tables 69, 70, 73, 76-78
T2 construct: endogenous in cells; host or cells: RKO cells (CRL-2577, ATCC)
Protocol: as §1, §2, §3

T2 sequence (P51532 whole entry): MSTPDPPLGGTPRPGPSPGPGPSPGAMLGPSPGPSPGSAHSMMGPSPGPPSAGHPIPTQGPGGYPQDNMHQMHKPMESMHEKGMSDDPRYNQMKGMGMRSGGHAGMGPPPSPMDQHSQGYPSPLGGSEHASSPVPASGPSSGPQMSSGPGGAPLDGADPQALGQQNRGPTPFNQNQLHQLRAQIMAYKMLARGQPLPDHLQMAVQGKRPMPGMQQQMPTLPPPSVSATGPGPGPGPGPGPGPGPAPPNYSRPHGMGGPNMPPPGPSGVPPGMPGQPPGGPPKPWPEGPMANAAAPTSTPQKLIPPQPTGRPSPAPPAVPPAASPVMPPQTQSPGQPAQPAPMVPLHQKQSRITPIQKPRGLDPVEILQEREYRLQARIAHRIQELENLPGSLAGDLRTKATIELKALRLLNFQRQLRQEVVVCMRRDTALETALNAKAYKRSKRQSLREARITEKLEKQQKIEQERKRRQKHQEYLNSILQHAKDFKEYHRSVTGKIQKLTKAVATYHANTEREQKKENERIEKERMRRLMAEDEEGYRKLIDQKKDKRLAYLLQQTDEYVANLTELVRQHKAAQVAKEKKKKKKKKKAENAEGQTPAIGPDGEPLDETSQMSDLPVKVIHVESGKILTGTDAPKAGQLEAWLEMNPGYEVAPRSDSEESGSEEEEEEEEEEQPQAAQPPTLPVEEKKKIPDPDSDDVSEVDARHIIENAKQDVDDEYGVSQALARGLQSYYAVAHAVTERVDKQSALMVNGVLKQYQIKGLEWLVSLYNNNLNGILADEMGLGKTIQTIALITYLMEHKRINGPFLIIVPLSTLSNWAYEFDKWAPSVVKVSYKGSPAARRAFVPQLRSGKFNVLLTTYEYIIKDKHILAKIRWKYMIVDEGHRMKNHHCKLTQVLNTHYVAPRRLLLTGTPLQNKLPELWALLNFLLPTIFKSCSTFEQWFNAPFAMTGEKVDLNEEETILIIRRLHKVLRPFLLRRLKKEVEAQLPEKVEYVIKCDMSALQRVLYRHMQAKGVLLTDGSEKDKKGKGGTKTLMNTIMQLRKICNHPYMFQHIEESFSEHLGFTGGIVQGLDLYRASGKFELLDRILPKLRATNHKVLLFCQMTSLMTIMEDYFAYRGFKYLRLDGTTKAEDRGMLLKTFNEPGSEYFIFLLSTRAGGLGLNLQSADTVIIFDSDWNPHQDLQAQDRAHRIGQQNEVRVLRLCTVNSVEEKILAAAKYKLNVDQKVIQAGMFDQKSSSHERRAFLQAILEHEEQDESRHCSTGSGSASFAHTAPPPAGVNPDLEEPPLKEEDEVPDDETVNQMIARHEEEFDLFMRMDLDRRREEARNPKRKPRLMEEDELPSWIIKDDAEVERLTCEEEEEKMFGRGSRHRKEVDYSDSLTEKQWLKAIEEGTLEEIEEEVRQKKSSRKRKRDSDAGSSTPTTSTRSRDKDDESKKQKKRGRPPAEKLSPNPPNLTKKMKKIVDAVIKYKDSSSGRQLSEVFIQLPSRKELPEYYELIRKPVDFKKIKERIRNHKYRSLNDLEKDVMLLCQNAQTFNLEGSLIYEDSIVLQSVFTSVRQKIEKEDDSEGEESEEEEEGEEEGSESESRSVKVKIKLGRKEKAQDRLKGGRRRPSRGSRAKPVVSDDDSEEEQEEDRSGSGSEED
T1 sequence (P51531 whole entry): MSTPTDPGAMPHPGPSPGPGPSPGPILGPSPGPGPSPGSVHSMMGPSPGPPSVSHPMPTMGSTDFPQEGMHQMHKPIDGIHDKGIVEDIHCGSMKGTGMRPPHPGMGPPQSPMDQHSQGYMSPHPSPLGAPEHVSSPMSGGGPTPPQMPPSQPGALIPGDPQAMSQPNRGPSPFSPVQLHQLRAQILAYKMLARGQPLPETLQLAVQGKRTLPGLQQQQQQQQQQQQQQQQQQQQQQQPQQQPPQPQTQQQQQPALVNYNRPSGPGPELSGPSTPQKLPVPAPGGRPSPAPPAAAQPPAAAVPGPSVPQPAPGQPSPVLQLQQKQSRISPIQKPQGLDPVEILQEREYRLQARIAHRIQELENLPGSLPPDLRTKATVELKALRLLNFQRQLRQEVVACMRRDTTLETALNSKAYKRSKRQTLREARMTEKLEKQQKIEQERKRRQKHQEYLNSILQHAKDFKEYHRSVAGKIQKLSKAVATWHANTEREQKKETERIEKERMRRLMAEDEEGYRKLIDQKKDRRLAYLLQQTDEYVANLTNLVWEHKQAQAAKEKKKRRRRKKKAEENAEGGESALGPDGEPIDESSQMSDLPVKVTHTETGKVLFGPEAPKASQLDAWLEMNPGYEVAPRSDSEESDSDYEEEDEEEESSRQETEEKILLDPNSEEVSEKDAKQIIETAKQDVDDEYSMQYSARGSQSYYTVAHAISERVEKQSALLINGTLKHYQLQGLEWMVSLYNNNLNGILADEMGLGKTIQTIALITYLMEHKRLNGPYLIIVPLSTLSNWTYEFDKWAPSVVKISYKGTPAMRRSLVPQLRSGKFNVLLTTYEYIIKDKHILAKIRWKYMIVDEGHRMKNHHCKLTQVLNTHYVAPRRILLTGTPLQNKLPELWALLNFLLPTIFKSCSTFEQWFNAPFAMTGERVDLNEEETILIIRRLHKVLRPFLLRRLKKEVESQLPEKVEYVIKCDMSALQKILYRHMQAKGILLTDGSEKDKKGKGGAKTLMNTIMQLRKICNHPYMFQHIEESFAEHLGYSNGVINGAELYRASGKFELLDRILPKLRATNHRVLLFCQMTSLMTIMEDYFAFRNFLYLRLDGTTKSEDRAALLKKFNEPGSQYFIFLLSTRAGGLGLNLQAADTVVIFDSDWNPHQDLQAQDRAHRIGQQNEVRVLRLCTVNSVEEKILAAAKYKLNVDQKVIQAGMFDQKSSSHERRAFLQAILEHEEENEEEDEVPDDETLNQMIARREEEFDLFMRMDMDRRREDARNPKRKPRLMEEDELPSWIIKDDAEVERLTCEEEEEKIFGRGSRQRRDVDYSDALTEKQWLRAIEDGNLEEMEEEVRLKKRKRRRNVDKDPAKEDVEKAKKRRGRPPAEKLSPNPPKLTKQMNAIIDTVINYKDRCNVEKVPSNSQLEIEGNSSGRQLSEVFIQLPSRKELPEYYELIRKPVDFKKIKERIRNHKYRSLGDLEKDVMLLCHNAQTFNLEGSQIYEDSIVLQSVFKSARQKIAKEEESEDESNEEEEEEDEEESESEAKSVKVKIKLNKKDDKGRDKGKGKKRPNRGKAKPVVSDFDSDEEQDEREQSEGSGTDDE

Compound | DC50 (SMARCA2) [nM] | DC50 (SMARCA4) [nM]
Cc1ncsc1-c1ccc([C@H](CC[C@H](C)CCN2CCC(c3ccc4c(c3)n(C3CCCC3)c3nc(=O)c5c(Br)cccc5n43)CC2)NC(=O)[C@@H]2C[C@@H](O)CN2C(=O)[C@@H](NC(=O)C2(F)CC2)C(C)(C)C)cc1 [Compound 42a] | 0.9 | 25
Cc1ncsc1-c1ccc([C@H](CCCN2CCC(c3cc4c(cc3OCCCN(C)C)n3c5cccc(Br)c5c(=O)nc3n4C3CCCC3)CC2)NC(=O)[C@@H]2C[C@@H](O)CN2C(=O)[C@@H](NC(=O)C2(F)CC2)C(C)(C)C)cc1 [Compound 42aa] | 10 | 20
Cc1ncsc1-c1ccc([C@H](COCCN2CCC(c3cc4c(cc3OCCN3CCN(C)CC3)n3c5cccc(Br)c5c(=O)nc3n4C3CCCC3)CC2)NC(=O)[C@@H]2C[C@@H](O)CN2C(=O)[C@@H](NC(=O)C2(F)CC2)C(C)(C)C)cc1 [Compound 42ab] | 21 | > 200
Cc1ncsc1-c1ccc([C@H](CO[C@@H](C)CN2CCC(c3ccc4c(c3)n(C3CCCC3)c3nc(=O)c5c(Br)cccc5n43)CC2)NC(=O)[C@@H]2C[C@@H](O)CN2C(=O)[C@@H](NC(=O)C2(F)CC2)C(C)(C)C)cc1 [Compound 42ac] | 20 | > 200
Cc1ncsc1-c1ccc([C@H](CCCN2CCC(c3ccc4c(c3)n(C3COC3)c3nc(=O)c5c(Br)cccc5n43)CC2)NC(=O)[C@@H]2C[C@@H](O)CN2C(=O)[C@@H](NC(=O)C2(F)CC2)C(C)(C)C)cc1 [Compound 42ad] | 25 | > 200
CC(C)(C)[C@H](NC(=O)C1(F)CC1)C(=O)N1C[C@H](O)C[C@H]1C(=O)N[C@@H](CCCN1CCC(c2ccc3c(c2)n(C2CCCC2)c2nc(=O)c4c(Br)cccc4n32)CC1)c1ccc(-c2cncs2)cc1 [Compound 42ae] | 1 | 5
Cc1ncsc1-c1ccc([C@H](COCC(O)CN2CCC(c3ccc4c(c3)n(C3CCCC3)c3nc(=O)c5c(Br)cccc5n43)CC2)NC(=O)[C@@H]2C[C@@H](O)CN2C(=O)[C@@H](NC(=O)C2(F)CC2)C(C)(C)C)cc1 (stereo partly drawn) [Compound 42af] | 6 | 25
CCn1c2cc(C3CCN(CCCCCOC[C@H](NC(=O)[C@@H]4C[C@@H](O)CN4C(=O)[C@@H](NC(=O)C4(N(C)C)CC4)C(C)(C)C)c4ccc(-c5scnc5C)cc4)CC3)c(OCCOCCOC)cc2n2c3cccc(Br)c3c(=O)nc12 [Compound 42ag] | 9 | > 200
Cc1ncsc1-c1ccc([C@H](CCCN2CCC(c3ccc4c(c3)n(C3CCCC3)c3nc(=O)c5c(Br)cccc5n43)CC2)NC(=O)[C@@H]2C[C@@H](O)CN2C(=O)[C@@H](NC(=O)C2(N(C)C)CC2)C(C)(C)C)cc1 [Compound 42ah] | 2 | 17
Cc1ncsc1-c1ccc([C@H](CCCCN2CCC(c3ccc4c(c3)n(C3CCCC3)c3nc(=O)c5c(Br)cccc5n43)CC2)NC(=O)[C@@H]2C[C@@H](O)CN2C(=O)[C@@H](NC(=O)C2(F)CC2)C(C)(C)C)cc1 [Compound 42ai] | 2 | 9
Cc1ncsc1-c1ccc([C@H](COCCN2CCC(c3ccc4c(c3)n(C3CCCC3)c3nc(=O)c5c(Br)cccc5n43)CC2)NC(=O)[C@@H]2C[C@@H](O)CN2C(=O)[C@@H](NC(=O)C2(N(C)C)CC2)C(C)(C)C)cc1 [Compound 42aj] | 4 | 
Cc1ncsc1-c1ccc([C@H](COCCCN2CCC(c3ccc4c(c3)n(C3CCCC3)c3nc(=O)c5c(Br)cccc5n43)CC2)NC(=O)[C@@H]2C[C@@H](O)CN2C(=O)[C@@H](NC(=O)C2(F)CC2)C(C)(C)C)cc1 [Compound 42ak] | 2 | 11
Cc1ncsc1-c1ccc([C@H](CCCN2CCC(c3cc4c(cc3OCCOCCO)n3c5cccc(Br)c5c(=O)nc3n4C3CCCC3)CC2)NC(=O)[C@@H]2C[C@@H](O)CN2C(=O)[C@@H](NC(=O)C2(F)CC2)C(C)(C)C)cc1 [Compound 42am] | 0.9 | 25
Cc1ncsc1-c1ccc([C@H](CO[C@H](C)CN2CCC(c3cc4c(cc3OC[C@@H]3CCCO3)n3c5cccc(Br)c5c(=O)nc3n4C3CCCC3)CC2)NC(=O)[C@@H]2C[C@@H](O)CN2C(=O)[C@@H](NC(=O)C2(F)CC2)C23CC4CC(CC(C4)C2)C3)cc1 [Compound 42an] | 0.6 | 7
Cc1ncsc1-c1ccc([C@H](CCCCCN2CCN(c3ccc4c(c3)n(C3CCCC3)c3nc(=O)c5c(Br)cccc5n43)CC2(C)C)NC(=O)[C@@H]2C[C@@H](O)CN2C(=O)[C@@H](NC(=O)C2(F)CC2)C(C)(C)C)cc1 [Compound 42ao] | 1 | 17
Cc1ncsc1-c1ccc([C@H](CCCCCN2CCN(c3ccc4c(c3)n(C3CCCC3)c3nc(=O)c5c(Br)cccc5n43)[C@H](C)C2)NC(=O)[C@@H]2C[C@@H](O)CN2C(=O)[C@@H](NC(=O)C2(F)CC2)C(C)(C)C)cc1 [Compound 42aq] | 1 | 9
Cc1ncsc1-c1ccc([C@H](CCCCCN2CCN(c3ccc4c(c3)n(C3CCCC3)c3nc(=O)c5c(Br)cccc5n43)[C@@H](C)C2)NC(=O)[C@@H]2C[C@@H](O)CN2C(=O)[C@@H](NC(=O)C2(F)CC2)C(C)(C)C)cc1 [Compound 42ar] | 0.5 | 2
Cc1ncsc1-c1ccc([C@@H](CC[C@@H](C)CCN2CCC(c3ccc4c(c3)n(C3CCCC3)c3nc(=O)c5c(Br)cccc5n43)CC2)NC(=O)[C@@H]2C[C@@H](O)CN2C(=O)[C@@H](NC(=O)C2(F)CC2)C(C)(C)C)cc1 [Compound 42as] | 82 | > 833
Cc1ncsc1-c1ccc([C@@H](CC[C@H](C)CCN2CCC(c3ccc4c(c3)n(C3CCCC3)c3nc(=O)c5c(Br)cccc5n43)CC2)NC(=O)[C@@H]2C[C@@H](O)CN2C(=O)[C@@H](NC(=O)C2(F)CC2)C(C)(C)C)cc1 [Compound 42at] | 57 | > 833
Cc1ncsc1-c1ccc([C@H](CCCCCN2C[C@@H]3C[C@H]2CN3c2ccc3c(c2)n(C2CCCC2)c2nc(=O)c4c(Br)cccc4n32)NC(=O)[C@@H]2C[C@@H](O)CN2C(=O)[C@@H](NC(=O)C2(F)CC2)C(C)(C)C)cc1 [Compound 42au] | 7 | > 833

Results, then the compound that gave them:

DC50 (SMARCA2) [nM] | DC50 (SMARCA4) [nM] | Compound
13 | 162 | Cc1ncsc1-c1ccc([C@H](COCCN2CCC(c3cc4c(cc3F)n3c5cccc(Br)c5c(=O)nc3n4C3CCCC3)CC2)NC(=O)[C@@H]2C[C@@H](O)CN2C(=O)[C@@H](NC(=O)C2(F)CC2)C(C)(C)C)cc1 [Compound 42av]
6 | > 833 | Cc1ncsc1-c1ccc([C@H](CCCCCN2CCC(c3cc4c(cn3)n3c5cccc(Br)c5c(=O)nc3n4C3CCCC3)CC2)NC(=O)[C@@H]2C[C@@H](O)CN2C(=O)[C@@H](NC(=O)C2(F)CC2)C(C)(C)C)cc1 [Compound 42aw]
7 | 29 | Cc1ncsc1-c1ccc([C@H](CCCCN(C)C2CCC(c3ccc4c(c3)n(C3CCCC3)c3nc(=O)c5c(Br)cccc5n43)CC2)NC(=O)[C@@H]2C[C@@H](O)CN2C(=O)[C@@H](NC(=O)C2(F)CC2)C(C)(C)C)cc1 (stereo partly drawn) [Compound 42ax]
15 | 109 | COc1cc2c(cc1C1CCN(CCOC[C@H](NC(=O)[C@@H]3C[C@@H](O)CN3C(=O)[C@@H](NC(=O)C3(F)CC3)C(C)(C)C)c3ccc(-c4scnc4C)cc3)CC1)n(C1CCCC1)c1nc(=O)c3c(Br)cccc3n21 [Compound 42ay]
36 | 800 | Cc1ncsc1-c1ccc([C@H](COCCN2CCC(c3cc4c(cc3OC3CCOC3)n3c5cccc(Br)c5c(=O)nc3n4C3CCCC3)CC2)NC(=O)[C@@H]2C[C@@H](O)CN2C(=O)[C@@H](NC(=O)C2(F)CC2)C(C)(C)C)cc1 (stereo partly drawn) [Compound 42az]
2 | > 833 | Cc1ncsc1-c1ccc([C@H](CC[C@H](C)CCN2CCC(c3ccc4c(c3)n([C@H]3CCOC3)c3nc(=O)c5c(Br)cccc5n43)CC2)NC(=O)[C@@H]2C[C@@H](O)CN2C(=O)[C@@H](NC(=O)C2(F)CC2)C(C)(C)C)cc1 [Compound 42b]
4 | 22 | CCn1c2cc(C3CCN(CCCCC[C@H](NC(=O)[C@@H]4C[C@@H](O)CN4C(=O)[C@@H](NC(=O)C4(F)CC4)C(C)(C)C)c4ccc(-c5scnc5C)cc4)CC3)ccc2n2c3cccc(Br)c3c(=O)nc12 [Compound 42ba]
17 | 142 | Cc1ncsc1-c1ccc([C@H](COCCN2CCC(c3ccc4c(c3)n(C3CCCC3)c3nc(=O)c5c(Br)cccc5n43)CC2)NC(=O)[C@@H]2C[C@@H](O)CN2C(=O)[C@@H](NC(=O)C2(C)CC2)C(C)(C)C)cc1 [Compound 42bb]
19 | 133 | Cc1ncsc1-c1ccc([C@H](COCCN2CCC(c3ccc4c(c3)n(C3CCCC3)c3nc(=O)c5c(Br)cccc5n43)CC2)NC(=O)[C@@H]2C[C@@H](O)CN2C(=O)[C@@H](NC(=O)C2(C(F)(F)F)CC2)C(C)(C)C)cc1 [Compound 42bc]

Reference: patent publication US20250049929A1, “NOVEL TETRAHYDROQUINOLINES AND PROTEOLYSIS TARGETING CHIMERA (PROTACS) COMPRISING THEM AS DEGRADERS OF SMARCA” (Boehringer Ingelheim International GmbH, priority 2021, published 2025)
